Measured values from patent US9040528B2, “Chemical compounds 542” (AstraZeneca AB, priority 2008, dated 2015).

The compounds below were run against Escherichia coli DNA gyrase A/B tetramer (Escherichia coli (strain K12), UniProt P0AES4+P0AES6) (assay: DNA gyrase supercoiling activity fluorescence polarisation assay). Details: not given.
Assay type: biochemical
Summary of the method: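 Supercoiling reactions quenched with 40 nM 5′-BODIPY-FL triplex-forming oligonucleotide probe in pH 3.5 NaCl/sodium acetate buffer; after 60 min, fluorescence anisotropy read (ex 485/em 535 nm). IC50 by nonlinear regression, normalised to 0.8% DMSO (100% activity) and 5 μM ciprofloxacin (0% activity).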
With `CC(C)NC(=O)c1noc2c(Cl)c3c(nc12)CC1(C(=O)NC(=O)NC1=O)[C@H]1[C@H](C)O[C@H](C)CN31` (relative stereo) [Example 127, (2R,4S,4aS)-rel-Chloro-N-isopropyl-2,4-dimethyl-2′,4′,6′-trioxo-2,2′,3′,4,4a,4′,6,6′-octahydro-1H,1′H-spiro[isoxazolo[4,5-g][1,4]oxazino[4,3-a][1,5]naphthyridine-5,5′-pyrimidine]-8-carboxamide] the IC50 was 19 µM.

Same assay, conditions: 5 nM enzyme, relaxed plasmid, 0.3 mM ATP, ambient temperature; read-out: E. coli DNA gyrase supercoiling IC50
Compound `C[C@@H]1CN2c3c(nc4c(-c5cnccn5)noc4c3Cl)CC3(C(=O)NC(=O)NC3=O)[C@H]2[C@H](C)O1` (relative stereo) [Example 110, (2R,4S,4aS)-rel-11-chloro-2,4-dimethyl-8-(pyrazin-2-yl)-2,4,4a,6-tetrahydro-1H,1′H-spiro[isoxazolo[4,5-g][1,4]oxazino[4,3-a][1,5]naphthyridine-5,5′-pyrimidine]-2′,4′,6′(3′H)-trione] has an IC50 of 3 µM.
`C[C@@H]1CN2c3c(nc4c(-c5nccs5)noc4c3Cl)CC3(C(=O)NC(=O)NC3=O)[C@H]2[C@H](C)O1` (relative stereo) [Example 111, (2R,4S,4aS)-rel-11-chloro-2,4-dimethyl-8-(thiazol-2-yl)-2,4,4a,6-tetrahydro-1H,1′H-spiro[isoxazolo[4,5-g][1,4]oxazino[4,3-a][1,5]naphthyridine-5,5′-pyrimidine]-2′,4′,6′(3′H)-trione] gave an IC50 of 0.7 µM.
For `Cc1csc(-c2noc3c(Cl)c4c(nc23)CC2(C(=O)NC(=O)NC2=O)[C@H]2[C@H](C)O[C@H](C)CN42)n1` (relative stereo) [Example 113, (2R,4S,4aS)-rel-11-Chloro-2,4-dimethyl-8-(4-methylthiazol-2-yl)-2,4,4a,6-tetrahydro-1H,1′H-spiro[isoxazolo[4,5-g][1,4]oxazino[4,3-a][1,5]naphthyridine-5,5′-pyrimidine]-2′,4′,6′(3′H)-trione], the IC50 was 2.5 µM.
For `C[C@@H]1CN2c3c(nc4c(-c5nccn5C)noc4c3Cl)CC3(C(=O)NC(=O)NC3=O)[C@H]2[C@H](C)O1` (relative stereo) [Example 114, (2R,4S,4aS)-rel-11-Chloro-2,4-dimethyl-8-(1-methyl-1H-imidazol-2-yl)-2,4,4a,6-tetrahydro-1H,1′H-spiro[isoxazolo[4,5-g][1,4]oxazino[4,3-a][1,5]naphthyridine-5,5′-pyrimidine]-2′,4′,6′(3′H)-trione], the IC50 was 5.2 µM.
With `C[C@@H]1CN2c3c(nc4c(-c5cncs5)noc4c3Cl)CC3(C(=O)NC(=O)NC3=O)[C@H]2[C@H](C)O1` (relative stereo) [Example 115, (2R,4S,4aS)-rel-11-chloro-2,4-dimethyl-8-(thiazol-5-yl)-2,4,4a,6-tetrahydro-1H,1′H-spiro[isoxazolo[4,5-g][1,4]oxazino[4,3-a][1,5]naphthyridine-5,5′-pyrimidine]-2′,4′,6′(3′H)-trione] the IC50 was 1.1 µM.
Work on `C[C@@H]1CN2c3c(nc4c(-c5sc(Cl)nc5Cl)noc4c3Cl)CC3(C(=O)NC(=O)NC3=O)[C@H]2[C@H](C)O1` (relative stereo) [Example 116, (2R,4S,4aS)-rel-11-chloro-2,4-dimethyl-8-(2,4-dichlorothiazol-5-yl)-2,4,4a,6-tetrahydro-1H,1′H-spiro[isoxazolo[4,5-g][1,4]oxazino[4,3-a][1,5]naphthyridine-5,5′-pyrimidine]-2′,4′,6′(3′H)-trione] yielded an IC50 of 2 µM.
`Cc1ncc(-c2noc3c(Cl)c4c(nc23)CC2(C(=O)NC(=O)NC2=O)[C@H]2[C@H](C)O[C@H](C)CN42)s1` (relative stereo) [Example 117, (2R,4S,4aS)-rel-11-Chloro-2,4-dimethyl-8-(2-methylthiazol-5-yl)-2,4,4a,6-tetrahydro-1H,1′H-spiro[isoxazolo[4,5-g][1,4]oxazino[4,3-a][1,5]naphthyridine-5,5′-pyrimidine]-2′,4′,6′(3′H)-trione] gave an IC50 of 2 µM.
With `C[C@@H]1CN2c3c(nc4c(-c5cnc(Br)s5)noc4c3Cl)CC3(C(=O)NC(=O)NC3=O)[C@H]2[C@H](C)O1` (relative stereo) [Example 119, (2R,4S,4aS)-rel-11-chloro-2,4-dimethyl-8-(2-bromothiazol-5-yl)-2,4,4a,6-tetrahydro-1H,1′H-spiro[isoxazolo[4,5-g][1,4]oxazino[4,3-a][1,5]naphthyridine-5,5′-pyrimidine]-2′,4′,6′(3′H)-trione] the IC50 was 3.1 µM.
Work on `C[C@@H]1CN2c3c(nc4c(-c5ccc(C#N)c(F)c5)noc4c3Cl)CC3(C(=O)NC(=O)NC3=O)[C@H]2[C@H](C)O1` (relative stereo) [Example 121, 4-((2R,4S,4aS)-rel-11-chloro-2,4-dimethyl-2′,4′,6′-trioxo-2,2′,3′,4,4a,4′,6,6′-octahydro-1H,1′H-spiro[isoxazolo[4,5-g][1,4]oxazino[4,3-a][1,5]naphthyridine-5,5′-pyrimidine]-8-yl)-2-fluorobenzonitrile] yielded an IC50 of 0.6 µM.
`Cc1cnc(-c2noc3c(Cl)c4c(nc23)CC2(C(=O)NC(=O)NC2=O)[C@H]2[C@H](C)O[C@H](C)CN42)s1` (relative stereo) [Example 122, (2R,4S,4aS)-rel-11-Chloro-2,4-dimethyl-8-(5-methylthiazol-2-yl)-2,4,4a,6-tetrahydro-1H,1′H-spiro[isoxazolo[4,5-g][1,4]oxazino[4,3-a][1,5]naphthyridine-5,5′-pyrimidine]-2′,4′,6′(3′H)-trione] gave an IC50 of 0.5 µM.
Work on `C[C@@H]1CN2c3c(nc4c(-c5ccc(C(N)=O)nc5)noc4c3Cl)CC3(C(=O)NC(=O)NC3=O)[C@H]2[C@H](C)O1` (relative stereo) [Example 123, 5-((2R,4S,4aS)-rel-11-chloro-2,4-dimethyl-2′,4′,6′-trioxo-2,2′,3′,4,4a,4′,6,6′-octahydro-1H,1′H-spiro[isoxazolo[4,5-g][1,4]oxazino[4,3-a][1,5]naphthyridine-5,5′-pyrimidine]-8-yl)picolinamide] yielded an IC50 of 5.8 µM.
With `CNC(=O)c1noc2c(Cl)c3c(nc12)CC1(C(=O)NC(=O)NC1=O)[C@H]1[C@H](C)O[C@H](C)CN31` (relative stereo) [Example 125, (2R,4S,4aS)-rel-11-Chloro-N,2,4-trimethyl-2′,4′,6′-trioxo-2,2′,3′,4,4a,4′,6,6′-octahydro-1H,1′H-spiro[isoxazolo[4,5-g][1,4]oxazino[4,3-a][1,5]naphthyridine-5,5′-pyrimidine]-8-carboxamide] the IC50 was 0.7 µM.
With `CCNC(=O)c1noc2c(Cl)c3c(nc12)CC1(C(=O)NC(=O)NC1=O)[C@H]1[C@H](C)O[C@H](C)CN31` (relative stereo) [Example 126, (2R,4S,4aS)-rel-11-chloro-N-ethyl-2,4-dimethyl-2′,4′,6′-trioxo-2,2′,3′,4,4a,4′,6,6′-octahydro-1H,1′H-spiro[isoxazolo[4,5-g][1,4]oxazino[4,3-a][1,5]naphthyridine-5,5′-pyrimidine]-8-carboxamide] the IC50 was 0.5 µM.
Compound `C[C@@H]1CN2c3c(nc4c(C(=O)NC(C)(C)C)noc4c3Cl)CC3(C(=O)NC(=O)NC3=O)[C@H]2[C@H](C)O1` (relative stereo) [Example 128, (2R,4S,4aS)-rel-N-tert-butyl-11-chloro-2,4-dimethyl-2′,4′,6′-trioxo-2,2′,3′,4,4a,4′,6,6′-octahydro-1H,1′H-spiro[isoxazolo[4,5-g][1,4]oxazino[4,3-a][1,5]naphthyridine-5,5′-pyrimidine]-8-carboxamide] has an IC50 of 19 µM.
Compound `C[C@@H]1CN2c3c(nc4c(C(=O)NCC(C)(C)C)noc4c3Cl)CC3(C(=O)NC(=O)NC3=O)[C@H]2[C@H](C)O1` (relative stereo) [Example 129, (2R,4S,4aS)-rel-11-Chloro-2,4-dimethyl-N-neopentyl-2′,4′,6′-trioxo-2,2′,3′,4,4a,4′,6,6′-octahydro-1H,1′H-spiro[isoxazolo[4,5-g][1,4]oxazino[4,3-a][1,5]naphthyridine-5,5′-pyrimidine]-8-carboxamide] has an IC50 of 31 µM.
Compound `C[C@@H]1CN2c3c(nc4c(C(=O)N5CC(F)(F)C5)noc4c3Cl)CC3(C(=O)NC(=O)NC3=O)[C@H]2[C@H](C)O1` (relative stereo) [Example 130, (2R,4S,4aS)-rel-11-Chloro-8-(3,3-difluoroazetidine-1-carbonyl)-2,4-dimethyl-2,4,4a,6-tetrahydro-1H,1′H-spiro[isoxazolo[4,5-g][1,4]oxazino[4,3-a][1,5]naphthyridine-5,5′-pyrimidine]-2′,4′,6′(3′H)-trione] has an IC50 of 30 µM.
`C[C@@H]1CN2c3c(nc4c(C(=O)NCc5ccccc5)noc4c3Cl)CC3(C(=O)NC(=O)NC3=O)[C@H]2[C@H](C)O1` (relative stereo) [Example 131, (2R,4S,4aS)-rel-N-benzyl-11-chloro-2,4-dimethyl-2′,4′,6′-trioxo-2,2′,3′,4,4a,4′,6,6′-octahydro-1H,1′H-spiro[isoxazolo[4,5-g][1,4]oxazino[4,3-a][1,5]naphthyridine-5,5′-pyrimidine]-8-carboxamide] was tested, and the IC50 was 4.4 µM.
`C[C@@H]1CN2c3c(nc4c(C(=O)NCc5ccc(C#N)cc5)noc4c3Cl)CC3(C(=O)NC(=O)NC3=O)[C@H]2[C@H](C)O1` (relative stereo) [Example 132, (2R,4S,4aS)-rel-11-chloro-N-(4-cyanobenzyl)-2,4-dimethyl-2′,4′,6′-trioxo-2,2′,3′,4,4a,4′,6,6′-octahydro-1H,1′H-spiro[isoxazolo[4,5-g][1,4]oxazino[4,3-a][1,5]naphthyridine-5,5′-pyrimidine]-8-carboxamide] was tested, and the IC50 was 7.7 µM.
With `C[C@@H]1CN2c3c(nc4c(C(=O)NCc5cccc(C#N)c5)noc4c3Cl)CC3(C(=O)NC(=O)NC3=O)[C@H]2[C@H](C)O1` (relative stereo) [Example 133, (2R,4S,4aS)-rel-11-chloro-N-(3-cyanobenzyl)-2,4-dimethyl-2′,4′,6′-trioxo-2,2′,3′,4,4a,4′,6,6′-octahydro-1H,1′H-spiro[isoxazolo[4,5-g][1,4]oxazino[4,3-a][1,5]naphthyridine-5,5′-pyrimidine]-8-carboxamide] the IC50 was 13 µM.
